Laboratory results as given in BindingDB's records for doi:10.1046/j.1471-4159.1998.71062558.x (F. Hoffmann-La Roche, 1998).

Target: Metabotropic glutamate receptor 2 (Homo sapiens, UniProt Q14416)
Sequence (Q14416 whole entry): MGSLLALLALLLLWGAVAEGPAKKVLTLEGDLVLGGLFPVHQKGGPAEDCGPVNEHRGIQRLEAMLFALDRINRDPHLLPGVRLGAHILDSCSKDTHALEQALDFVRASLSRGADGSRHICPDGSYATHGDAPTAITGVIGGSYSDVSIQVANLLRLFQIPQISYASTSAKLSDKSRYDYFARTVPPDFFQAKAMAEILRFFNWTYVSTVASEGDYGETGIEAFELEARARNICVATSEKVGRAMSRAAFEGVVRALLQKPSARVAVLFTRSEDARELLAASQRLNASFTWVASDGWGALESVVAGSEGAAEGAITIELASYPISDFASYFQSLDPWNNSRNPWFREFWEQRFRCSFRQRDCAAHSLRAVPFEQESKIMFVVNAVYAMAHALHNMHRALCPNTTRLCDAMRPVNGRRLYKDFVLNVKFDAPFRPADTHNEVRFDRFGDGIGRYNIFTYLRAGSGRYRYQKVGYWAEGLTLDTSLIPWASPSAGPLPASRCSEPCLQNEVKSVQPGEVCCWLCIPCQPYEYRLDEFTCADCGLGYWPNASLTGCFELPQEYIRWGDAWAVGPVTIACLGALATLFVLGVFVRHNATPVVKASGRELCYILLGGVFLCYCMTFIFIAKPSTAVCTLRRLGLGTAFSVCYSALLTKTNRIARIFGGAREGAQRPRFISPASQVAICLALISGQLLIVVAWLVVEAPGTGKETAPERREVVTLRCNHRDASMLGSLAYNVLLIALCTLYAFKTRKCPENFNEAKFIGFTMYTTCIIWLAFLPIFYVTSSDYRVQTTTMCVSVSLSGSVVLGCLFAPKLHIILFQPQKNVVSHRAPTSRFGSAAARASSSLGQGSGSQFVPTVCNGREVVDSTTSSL

Structure (SMILES) | Ki
N[C@@H](CCP(=O)(O)O)C(=O)O | 680 nM
CC(N)(C(=O)O)c1ccc(P(=O)(O)O)cc1 (stereo unspecified) | 260 nM
N[C@@]1(C(=O)O)CC[C@H](C(=O)O)C1 [1S, 3R-ACPD] | 9.33 nM
N[C@@H](Cn1oc(=O)[nH]c1=O)C(=O)O [2-amino-3-(3,5-dioxo[1,2,4]oxadiazolidin-2-yl)propionic acid] | 178 nM
N[C@H](CP(=O)(O)O)C(=O)O [CAS_23052-80-4] | 263 nM

Second part, the molecule after the results:

Ki | Structure (SMILES)
334 nM | C[C@@](N)(C(=O)O)c1ccc(C(=O)O)cc1 (racemic)
376 nM | CCC(N)(CCC(=O)O)C(=O)O (stereo unspecified) [CAS_5311079]
0.078 nM | NC(Cn1cnc2c(=O)[nH]c(=O)[nH]c21)(C(=O)O)C1CC1C(=O)O (stereo unspecified) [CAS_5311260]
0.368 nM | N[C@H](C(=O)O)C1[C@@H](C(=O)O)[C@@H]1C(=O)O (stereo partly specified) [DCG-IV]
0.378 nM | N[C@H](C(=O)O)[C@H]1C[C@H]1C(=O)O [L-CCG-IV]
69 nM | C[C@](N)(C(=O)O)C1C[C@@H]1C(=O)O (stereo partly specified) [MCCG-I]
